What follows are molecules tested on Huh7 cells containing HCV replicons with an integrated luciferase reporter gene (assay: HCV Replicon Assay (luciferase reporter)). Conditions: Hepatitis C virus, Huh-7, 48 h, read-out: EC50 nM.
Format: cell-based
Method: Huh7 cells containing HCV replicons with an integrated luciferase reporter gene are maintained at 37° C. in 5% CO2 in Dulbecco's modified Eagle's medium (DMEM; Mediatech, Herndon, Va.) containing 10% heat-inactivated fetal bovine serum (FBS; Mediatech, Herndon, Va.), 2 mM L-glutamine (Cambrex Bioscience, Walkersville, Md.), 1% non essential amino acids (Lonza, Walkersville, Md.), 50 IU/mL penicillin (Mediatech, Herndon, Va.), […] streptomycin (Mediatech, Herndon, Va.) and 0.5 mg/mL G418 (Promega, Madison, Wis.). Cells are sub-divided 1:3 or 4 every 2-3 days.
24 h prior to the assay, Huh7 cells containing sub-genomic HCV replicons are collected, counted, and plated in Nunclon 96-well tissue culture plates (ThermoFisher, Rochester, N.Y.) at 5000 cells/well in […] standard maintenance medium (above) and incubated in the conditions above. To initiate the assay, culture medium is removed, and replaced with […] maintenance media lacking G418. Test compounds are serially diluted three-fold in dimethyl sulfoxide (DMSO) in two duplicate rows for each EC50 determination. These compound solutions are diluted ten-fold in DMEM lacking serum and G418. […] of these compound solutions in media are added to duplicate tissue culture plates. The final volume is 100 μL with a DMSO concentration of 1%. Compound concentrations are adjusted to appropriately define a dose response curve. Typical dilution series range from […] to 1.69 nM final concentrations to 1 nM to 16.9 fM final. Plates are incubated at 37° C. for approximately 48 hr.
Following incubation, media is removed from one of the two duplicate plates and replicon-reporter luciferase activity is measured using a Bright-Glo luciferase assay kit (Promega, Madison, Wis.) according to manufacturer's instructions. Semi-log plots of luciferase activity versus the logarithm of compound concentration are fit to a 4-parameter logistic function using XLfit software (IDBS Inc., Guildford, UK) to determine EC50.
In the case of O=C(Cc1ccccc1)N1CCC[C@H]1c1ncc(-c2ccc(-c3ccc(-c4cnc([C@@H]5CCCN5C(=O)Cc5ccccc5)[nH]4)c4ccccc34)cc2)[nH]1 [Compound 302], the EC50 is reported as less than 10 nM. For COC(=O)N[C@H](C(=O)N1CCC[C@H]1C(=O)Nc1ccc(C(=O)Nc2ccc(NC(=O)[C@@H]3CCCN3C(=O)Cc3ccccc3)cc2)cc1)C(C)C [Compound 104], the EC50 was 10 to 100 nM. For COC(=O)N[C@H](C(=O)N1CCC[C@H]1C(=O)Nc1ccc(NC(=O)c2ccc(NC(=O)[C@@H]3CCCN3C(=O)Cc3ccccc3)cc2)cc1)C(C)C [Compound 103], the EC50 was 10 to 100 nM. O=C(Nc1ccc(-c2ccc3nc(NC(=O)[C@@H]4CCCN4C(=O)Cc4ccccc4)ccc3c2)cn1)[C@@H]1CCCN1C(=O)Cc1ccccc1 [Compound 216] showed an EC50 of less than 10 nM. Work on COC(=O)N[C@H](C(=O)N1CCC[C@H]1c1ncc(-c2ccc(-c3ccc(-c4cnc([C@@H]5CCCN5C(=O)Cc5ccccc5)[nH]4)c4ccccc34)cc2)[nH]1)C(C)C [Compound 307] yielded an EC50 of less than 10 nM.

Same assay, conditions: Hepatitis C virus, Huh-7; Huh7 HCV replicon cells, luciferase activity, approximately 48 hr incubation; read-out: EC50
In the case of COC(=O)N[C@H](C(=O)N1CCOC[C@H]1c1nc(-c2ccc3cc(-c4ccc5[nH]c([C@@H]6COCCN6C(=O)[C@@H](NC(=O)OC)C(C)C)nc5c4)ccc3c2)c[nH]1)C(C)C [Compound 419], the EC50 is reported as less than 10 nM. COC(=O)N[C@H](C(=O)N1CCC[C@H]1C(=O)Nc1ccc(-c2ccc3nc(NC(=O)[C@@H]4CCCN4C(=O)[C@@H](NC(=O)OC)C(C)C)ccc3c2)cn1)C(C)C [Compound 217] was tested, and the EC50 was less than 10 nM. Work on COC(=O)N[C@H](C(=O)N1CCC[C@H]1c1nc(-c2ccc(-c3ccc(-c4c[nH]c([C@@H]5CCCN5C(=O)[C@@H](NC(=O)OC)C(C)C)n4)c4oc(C)nc34)cc2)c[nH]1)C(C)C [Compound 323] yielded an EC50 of less than 10 nM. COC(=O)N[C@H](C(=O)N1CCCC[C@H]1c1nc(-c2ccc3cc(-c4ccc5[nH]c([C@@H]6CCCCN6C(=O)[C@@H](NC(=O)OC)C(C)C)nc5c4)ccc3c2)c[nH]1)C(C)C [Compound 418] gave an EC50 of less than 10 nM. In the case of COC(=O)NC(C(=O)N1CCC[C@H]1c1nc(-c2ccc(-c3ccc(-c4c[nH]c([C@@H]5CCCN5C(=O)[C@@H](NC(=O)OC)C(C)C)n4)c4c3CCCC4)cc2)c[nH]1)C(C)C (stereo partly shown) [Compound 304], the EC50 is reported as less than 10 nM. O=C(Nc1ccc(NC(=O)[C@@H]2CCCN2C(=O)Cc2ccccc2)cc1)c1ccc(NC(=O)[C@@H]2CCCN2C(=O)Cc2ccccc2)cc1 [Compound 101] gave an EC50 of 10 to 100 nM. Molecule O=C(Nc1ccc(-c2ccc3cc(NC(=O)[C@@H]4CCCN4C(=O)Cc4ccccc4)ccc3c2)cc1)[C@@H]1CCCN1C(=O)Cc1ccccc1 [Compound 211] has an EC50 of less than 10 nM. Work on COC(=O)N[C@H](C(=O)N1CCC[C@H]1C(=O)OCC(=O)c1ccc(-c2ccc(C(=O)COC(=O)[C@@H]3CCCN3C(=O)[C@@H](NC(=O)OC)C(C)C)c3c2CCCC3)cc1)C(C)C [Compound 303] yielded an EC50 of 10 to 100 nM. Work on COC(=O)N[C@H](C(=O)N1CCC[C@H]1c1nc(-c2ccc(-c3ccc(-c4c[nH]c([C@@H]5CCCN5C(=O)[C@@H](NC(=O)OC)C(C)C)n4)c4c3OCO4)cc2)c[nH]1)C(C)C [Compound 312] yielded an EC50 of less than 10 nM. With COC(=O)N[C@H](C(=O)N1CCC[C@H]1c1nc(-c2ccc(-c3ccc4cc(-c5c[nH]c([C@]6(C)CCCN6C(=O)[C@@H](NC(=O)OC)C(C)C)n5)ccc4c3)cc2)c[nH]1)C(C)C [Compound 222] the EC50 was less than 10 nM. COC(=O)N[C@H](C(=O)N1CCC[C@@]1(C)c1nc(-c2ccc(-c3ccc(-c4c[nH]c([C@]5(C)CCCN5C(=O)[C@@H](NC(=O)OC)C(C)C)n4)c4scnc34)cc2)c[nH]1)C(C)C [Compound 329] was tested, and the EC50 was less than 10 nM. O=C(Nc1ccc2cc(-c3ccc(NC(=O)[C@@H]4CCCN4C(=O)Cc4ccccc4)nc3)ccc2c1)[C@@H]1CCCN1C(=O)Cc1ccccc1 [Compound 206] gave an EC50 of less than 10 nM. Molecule COC(=O)N[C@H](C(=O)N1CCC[C@@]1(C)c1nc(-c2ccc(-c3ccc(-c4c[nH]c([C@]5(C)CCCN5C(=O)[C@@H](NC(=O)OC)C(C)C)n4)c4c3OCO4)cc2)c[nH]1)C(C)C [Compound 328] has an EC50 of less than 10 nM. With COC(=O)N[C@H](C(=O)N1CCC[C@H]1C(=O)Nc1ccc2cc(-c3ccc(NC(=O)[C@@H]4CCCN4C(=O)Cc4ccccc4)cc3)ccc2c1)C(C)C [Compound 203] the EC50 was less than 10 nM. COC(=O)N[C@H](C(=O)N1CCC[C@H]1c1ncc(-c2ccc(-c3ccc(-c4cnc([C@@H]5CCCN5C(=O)[C@@H](NC(=O)OC)C(C)C)[nH]4)c4ccccc34)cc2)[nH]1)C(C)C [Compound 301] gave an EC50 of less than 10 nM. With COC(=O)N[C@H](C(=O)N1CCC[C@H]1c1ncc(-c2ccc(-c3ccc(-c4cnc([C@@H]5CCCN5C(=O)[C@@H](NC(=O)OC)C(C)C)[nH]4)c4c3OCCO4)cc2)[nH]1)C(C)C [Compound 309] the EC50 was less than 10 nM. Work on COC(=O)N[C@H](C(=O)N1CCC[C@H]1C(=O)Nc1ccc2cc(-c3cnc(NC(=O)[C@@H]4CCCN4C(=O)[C@@H](NC(=O)OC)C(C)C)nc3)ccc2n1)C(C)C [Compound 212] yielded an EC50 of less than 10 nM. COC(=O)N[C@H](C(=O)N1CCC[C@H]1C(=O)Nc1ccc2cc(-c3ccc(NC(=O)[C@@H]4CCCN4C(=O)[C@@H](NC(=O)OC)C(C)C)nc3)ccc2c1)C(C)C [Compound 207] was tested, and the EC50 was less than 10 nM. With COC(=O)N[C@H](C(=O)N1CCC[C@H]1C(=O)OCC(=O)c1ccc(-c2ccc(C(=O)COC(=O)[C@@H]3CCCN3C(=O)[C@@H](NC(=O)OC)C(C)C)c3c2CCC3)cc1)C(C)C [Compound 305] the EC50 was greater than 100 nM. Molecule COC(=O)N[C@H](C(=O)N1CCC[C@H]1c1nc(-c2ccc(-c3ccc(-c4c[nH]c([C@@H]5CCCN5C(=O)[C@@H](NC(=O)OC)C(C)C)n4)c4c3CCC4)cc2)c[nH]1)C(C)C [Compound 306] has an EC50 of less than 10 nM. For COC(=O)N[C@H](C(=O)N1CCC[C@H]1C(=O)Nc1ccc2cc(NC(=O)[C@@H]3CCCN3C(=O)[C@@H](NC(=O)OC)C(C)C)ccc2c1)C(C)C [Compound 204], the EC50 was 10 to 100 nM. COC(=O)N[C@H](C(=O)N1CCC[C@H]1c1nc(-c2ccc(-c3ccc(-c4c[nH]c([C@@H]5CCCN5C(=O)[C@@H](NC(=O)OC)C(C)C)n4)c4cccnc34)cc2)c[nH]1)C(C)C [Compound 314] was tested, and the EC50 was less than 10 nM. COC(=O)NCC(=O)N1CCC[C@H]1c1ncc(-c2ccc(-c3ccc(-c4cnc([C@@H]5CCCN5C(=O)CNC(=O)OC)[nH]4)c4ccccc34)cc2)[nH]1 [Compound 325] gave an EC50 of less than 10 nM. In the case of COC(=O)N[C@H](C(=O)N1CCC[C@H]1C(=O)Nc1ccc(-c2ccc3cc(NC(=O)[C@@H]4CCCN4C(=O)[C@@H](NC(=O)OC)C(C)C)ccc3c2)cc1)C(C)C [Compound 201], the EC50 is reported as less than 10 nM. O=S(=O)(Cc1ccccc1)N1CCC[C@H]1c1ncc(-c2ccc(-c3ccc(-c4cnc([C@@H]5CCCN5S(=O)(=O)Cc5ccccc5)[nH]4)c4ccccc34)cc2)[nH]1 [Compound 326] gave an EC50 greater than 100 nM. Work on COC(=O)N[C@H](C(=O)N1CCC[C@H]1c1nc(-c2ccc(-c3ccc(-c4c[nH]c([C@@H]5CCCN5C(=O)[C@@H](NC(=O)OC)C(C)C)n4)c4sc(C)nc34)cc2)c[nH]1)C(C)C [Compound 310] yielded an EC50 of less than 10 nM. Molecule COC(=O)N[C@H](C(=O)N1CCC[C@H]1C(=O)Nc1ncc(-c2ccc3nc(NC(=O)[C@@H]4CCCN4C(=O)Cc4ccccc4)ccc3c2)cn1)C(C)C [Compound 214] has an EC50 of 10 to 100 nM. In the case of COC(=O)N[C@H](C(=O)N1CCC[C@H]1C(=O)Nc1ccc(-c2nc3ccc(NC(=O)[C@@H]4CCCN4C(=O)[C@@H](NC(=O)OC)C(C)C)cc3s2)cc1)C(C)C [Compound 403], the EC50 is reported as less than 10 nM. In the case of COC(=O)N[C@H](C(=O)N1CCC[C@H]1c1nc(-c2ccc(-c3ccc(-c4c[nH]c([C@@H]5CCCN5C(=O)[C@@H](NC(=O)OC)C(C)C)n4)c4sccc34)cc2)c[nH]1)C(C)C [Compound 311], the EC50 is reported as less than 10 nM. In the case of COC(=O)N[C@@H](C(=O)N1CCC[C@H]1c1ncc(-c2ccc(-c3ccc(-c4cnc([C@@H]5CCCN5C(=O)[C@H](NC(=O)OC)C(C)C)[nH]4)c4ccccc34)cc2)[nH]1)C(C)C [Compound 324], the EC50 is reported as less than 10 nM. Molecule COC(=O)N[C@H](C(=O)N1CCC[C@H]1c1nc(-c2ccc(-c3ccc(-c4c[nH]c([C@@H]5CCCN5C(=O)[C@@H](NC(=O)OC)C(C)C)n4)c4[nH]cc(C)c34)cc2)c[nH]1)C(C)C [Compound 330] has an EC50 of less than 10 nM. COC(=O)N[C@H](C(=O)N1CCC[C@H]1C(=O)Nc1ccc2cc(NC(=O)[C@@H]3CCCN3C(=O)Cc3ccccc3)ccc2c1)C(C)C [Compound 205] was tested, and the EC50 was greater than 100 nM. In the case of COC(=O)N[C@H](C(=O)N1CCC[C@H]1c1nc(-c2ccc3cc(-c4ccc5[nH]c([C@@H]6CCCN6C(=O)[C@@H](NC(=O)OC)C(C)C)nc5c4)ccc3c2)c[nH]1)C(C)C [Compound 402], the EC50 is reported as less than 10 nM. Molecule COC(=O)N[C@H](C(=O)N1CCC[C@H]1c1nc(-c2ccc(-c3ccc(-c4c[nH]c([C@@H]5CCCN5C(=O)[C@@H](NC(=O)OC)C(C)C)n4)c4ncccc34)cc2)c[nH]1)C(C)C [Compound 315] has an EC50 of less than 10 nM. In the case of CC(C)[C@H](Nc1ncccn1)C(=O)N1CCC[C@H]1c1nc(-c2ccc3cc(-c4ccc5[nH]c([C@@H]6CCCN6C(=O)[C@@H](Nc6ncccn6)C(C)C)nc5c4)ccc3c2)c[nH]1 [Compound 420], the EC50 is reported as less than 10 nM.
